In US6153434A, “Methods for the intracellular delivery of substances” (University of Florida, priority 1999, dated 2000):

Legend:
[1] = tested on: plasmid DNA; test: Dissociation of DNA from DNA/liposome complexes by glutathione, agarose gel electrophoresis; format: physicochemical; details: presence of glutathione
Procedure: Dissociation of DNA from DNA/liposome complexes by glutathione: One μg of plasmid DNA was dissolved in 10 (L of phosphate-buffer saline (PBS). Cationic liposomes […] or CHSTAEA/DOPE were added to pDNA solution at the increasing weight ratios of 2/1, respectively. All calculations of the weight of liposomes in this paper were based on the weight of cationic lipids only. After the complexes were incubated for 30 minutes at room temperature, 10 (L of 20 mM of glutathione in PBS (pH=7.3) was added to the mixture to reach a final concentration of glutathione of 10 mM. The mixtures were incubated at 37° C. for 20 hours. Released DNA was visualized by 1% agarose gel electrophoresis.
DNA was complexed with a disulfide cationic liposome CHDTAEA/DOPE or its non-disulfide cationic liposome analog CHSTAEA/DOPE at the cationic lipid to DNA ratio of 2/1. […] In the presence of 10 mM of glutathione, >50% of DNA was released from complexes after the incubation. […] The complexes with the ratios of cationic liposome/DNA from 3/1 to 5/1 were also tested in the release assay with similar same results.

[2] = tested on: CHO cells; test: Transfection of pGL3-luciferase plasmid; format: cell-based, Chinese hamster
Procedure: (§1) FIGS. 5A and 5B show a comparison of the transfection of pGL3-luciferase plasmid by CHDTAEA/DOPE, CHSTAEA/DOPE, and DC-Chol in CHO and SKnSH cells. A fixed dose 2 μg/well of pGL3 DNA was mixed with increasing weight ratios of cationic liposomes (calculation based on cationic lipid) and used for transfection. FIG. 5A: Transfection in CHO cells, FIG. 5B: Transfection in SKnSH cells. .diamond-solid.CHDTAEA/DOPE, .box-solid.CHSTAEA/DOPE; .tangle-solidup.DC-Chol/DOPE. Data is shown as mean (S. D. (n=3).
(§2) Cell culture and gene transfection using CHDTAEA and CHSTAEA: Chinese hamster ovary (CHO) and SKnSH cells were obtained from American Tissue Type Collection (Rockville, Md.). […] DNA/liposome complexes in 100 (L of serum free media were added to each well and incubated for 4.5 hours. After the 4.5-hour transfection time, the transfection media were changed to growth media and cells were incubated for another 24 hours. Luciferase activity was measured using a standard luciferase assay (Thierry, A. R., P. Rabinovich, B. Peng, L. C. Mahan, J. L. Bryant, R. C. Gallo (1997) Gene Ther 4:226-237). Luciferase activity in transfected cells was expressed as RLU per well. All conditions for transfection were strictly kept the same for each different kind of liposomes. Experiments were repeated at least twice, and experiments were done in triplicate within a given series.

[3] = tested on: SKnSH cells; test: Transfection of pGL3-luciferase plasmid; format: cell-based
Procedure: as §1, §2

With `CC(C)CCC[C@@H](C)[C@H]1CC[C@H]2[C@@H]3CC=C4C[C@@H](OC(=O)CSSCC(=O)NCCN(CCN)CCN)CC[C@]4(C)[C@H]3CC[C@]12C` [CHDTAEA, Cholesteryl hemidithiodiglycolyl tris(aminoethyl)amine] the “release of complexed DNA” value [1] was “released more than half of complexed DNA”, the “transfection activity vs non-disulfide analog CHSTAEA” value [2] was “greater transfection activity than its non-disulfide analog CHSTAEA” and the “transfection activity vs non-disulfide analog CHSTAEA” value [3] was “greater transfection activity than its non-disulfide analog CHSTAEA”.
